Columns and labels:
[1] = system: ischemia reperfusion injury/nephrectomy (IR/Nx) model; experiment: Ischemia reperfusion injury/nephrectomy (IR/Nx) model: urinary albumin to creatinine ratio; type: in vivo, mouse; conditions: for geometric mean of the urinary albumin to creatinine ratio: s.c. 20 mg/kg on days 2, 3, 4, 8, urine day 9, PBS control 127, nephrectomy-only 16
Source text: An ischemia reperfusion injury/nephrectomy (IR/Nx) model is created in the mouse through temporary unilateral clamping of an artery in one kidney, which leads to tubule damage, inflammation, and fibrosis, followed by removal of the second kidney at a later timepoint. In this model, the acute kidney dysfunction phase is useful to test candidate agents for the treatment of acute kidney injury (i.e. up to about the first 5 days), and the later phases of kidney dysfunction are useful to model chronic fibrosis (i.e. after about the first 5 days).
Anti-miR-21 compounds were tested in the IR/Nx model. 25109, a 6-base mismatch to miR-21, was used as a control compound ([…]; where nucleosides not followed by a subscript indicate β-deoxynucleosides; nucleosides followed by a subscript “E” indicate 2′-MOE nucleosides; nucleosides followed by a subscript “S” indicate S-cEt nucleosides; and all internucleoside linkages are phosphorothioate internucleoside linkages).
Unilateral IR was induced for a period of 30 minutes. Treatment groups were as follows: sham IR procedure; IR with PBS administered subcutaneously; IR with mismatched control 25109 administered subcutaneously at a dose of 20 mg/kg; IR with anti-miR-21 compound 25070 administered subcutaneously at a dose of 20 mg/kg; and IR with anti-miR-21 compound 25923 administered subcutaneously at a dose of 20 mg/kg. PBS or anti-miR was administered on days 2, 3, 4, and 8 following IR. On day 8, the healthy kidney was removed by nephrectomy from each animal, and animals were sacrificed on day 9. Just prior to sacrifice, urine was collected by direct bladder puncture.
Urinary albumin to creatinine ratio was measured in the urine from each mouse. […] The geometric mean of the albumin to creatinine ratio in each group of mice was 16 μgAlb/mgCr (nephrectomy-only control), 127 μgAlb/mgCr (IR/Nx, PBS control), 140 μgAlb/mgCr (IR/Nx, 25109 control), 40 μgAlb/mgCr (IR/Nx, 25070), and 31 μgAlb/mgCr (IR/Nx, 25923). Blood urea nitrogen and serum creatinine levels were similar across all IR/Nx mice, and were elevated relative to nephrectomy-only control mice (data not shown).

miR-21 = miR-21 luciferase sensor assay in Hela cells; type: cell-based
Description: The compounds were assessed for miR-21 inhibitory activity in a luciferase assay. A microRNA luciferase sensor construct was engineered using pGL3-MCS2 (Promega). The construct was introduced into Hela cells to test the ability of anti-miR compounds to inhibit activity of miR-21. In this assay, miR-21 present in the Hela cells binds to its cognate site(s) in the luciferase sensor construct, and suppresses luciferase expression. When the appropriate anti-miR is introduced into the cells, it binds to miR-21 and relieves suppression of luciferase expression. Thus, in this assay anti-miRs that are effective inhibitors of miR-21 expression will cause an increase in luciferase expression.
Day 1: Hela cells (ATCC), stably transfected with a luciferase construct engineered to contain a sequence complementary of miR-21, were seeded in T-170 flasks (BD Falcon) at 3.5*10^6 cells/flask. Hela cells were grown in Dulbecco's Modified Eagle Medium with High Glucose (Invitrogen).
Day 2: Each flask of Hela cells was transfected with 0.5 ug of a phRL sensor plasmid (Promega) expressing Renilla to be used in normalization. Hela cells were transfected using 20 ul Lipofectamine 2000/flask (Invitrogen). After 4 hours of transfection, cells were washed with PBS and trypsinized. Hela cells were plated at 40 k/well in 24 well plates (BD Falcon) and left overnight.
Day 3: Hela cells were transfected with anti-miRs using Lipofectin (Invitrogen) at 2.5 ul Lipofectin/100 nM ASO/ml Opti-MEM I Reduced Serum Medium (Invitrogen) for 4 hours. After ASO transfection, Hela cells were refed with Dulbecco's Modified Eagle Medium with High Glucose (Invitrogen).
Day 4: Hela cells are passively lysed and luciferase activity measured using the Dual-Luciferase Reporter Assay System (Promega).
The luciferase assay was performed to test the ability of anti-miRs with the nucleoside patterns described herein to inhibit the activity of miR-21. Results were compared to a ‘mock’ treatment, in which cells received no anti-miR treatment. The experiment was repeated and results of two experimental replicates are shown in the following Table B, as the luciferase value normalized to beta-galactosidase activity.
The luciferase assay was performed as described herein to test the ability of anti-miRs in Table F to inhibit the activity of miR-21. Results were compared to a ‘mock’ treatment, in which cells received no anti-miR treatment. The experiment was repeated and results of two experimental replicates are shown in the following Table D, as fold change in luciferase value relative to the mock treatment.

[2] = system: collagen 1A1 and collagen 3A1 expression in kidney, unilateral ureteral obstruction (UUO) model; experiment: UUO model of kidney fibrosis: kidney collagen 1A1 and collagen 3A1 expression by real-time PCR; type: in vivo, mice; conditions: UUO; 20 mg/kg at days -5, -3, +3; kidney at day 10
Description: Unilateral ureteral obstruction (UUO) is a well-established experimental model of renal injury leading to interstitial fibrosis, and thus is used as an experimental model that is reflective of human kidney disease. UUO is induced by surgically ligating a single ureter. As fibrosis is characterized by an increase in collagen, the presence and extent of kidney fibrosis may be determined by measuring collagen content. Both collagen 1A1 (Col 1A1) and collagen 3A1 (Col 3A1) are measured to assess collagen content. Kidney fibrosis may be visualized by staining tissue samples with picro-sirius red to detect increases in collagen content. Kidney fibrosis may also be observed by measuring the amount of hydroxyproline, which is a major component of collagen, in a sample.
The cEt-containing anti-miR-21 compounds found to be active in the luciferase assay were tested in the UUO model of kidney fibrosis. 25919 comprising 2′-MOE and 2′-fluoro modifications is known to inhibit miR-21 activity in vivo and was included as a positive control. Groups of 8 animals each were treated as follows: UUO only, UUO with PBS, or UUO with anti-miR-21 compound. Relative to the day of the UUO procedure, PBS or anti-miR-21 compound was administered at days −3, −1, and +5. Anti-miR-21 compounds were administered at a dose of 20 mg/kg. As the anti-miR compounds were administered prior to the UUO procedure, this dosing regimen is considered a prophylactic treatment. At day 11, animals were sacrificed and kidney was isolated for measurement of collagen expression. Collagen expression was measured by real-time PCR and normalized first to GAPDH and then to the sham control animals. […]

[3] = In vivo stability: compound in kidney tissue after administration to mice; conditions: kidney tissue after administration to mice; for in vivo (kidney) N-1(%): compound lacking one terminal nucleoside; for in vivo (kidney) N(%): full-length compound
[4] = Ex vivo liver homogenate stability assay (HPLC-TOF MS); conditions: 24 hours, 37° C.; for ex vivo (liver) N %↓: 5 μM oligonucleotide in liver homogenate (50 mg tissue per ml), decrease of full-length compound; for ex vivo (liver) % N-1 / ex vivo (liver) % Endo: 5 μM oligonucleotide in liver homogenate; for ex vivo (liver) % N-1: compound lacking one terminal nucleoside; for ex vivo (liver) % Endo: endonuclease products

Sequence	geometric mean of the urinary albumin to creatinine ratio [1]	inhibition of miR-21 in the luciferase assay (in words) (miR-21; Hela cells)	fold change in luciferase value relative to the mock treatment (miR-21; concentration of anti-miR compound 0.2 (unit not given))	fold change in luciferase value relative to the mock treatment (miR-21; concentration of anti-miR compound 0.6 (unit not given))	fold change in luciferase value relative to the mock treatment (miR-21; concentration of anti-miR compound 1.9 (unit not given))	fold change in luciferase value relative to the mock treatment (miR-21; concentration of anti-miR compound 5.6 (unit not given))	fold change in luciferase value relative to the mock treatment (miR-21; concentration of anti-miR compound 16.7 (unit not given))	fold change in luciferase value relative to the mock treatment (miR-21; concentration of anti-miR compound 50.0 (unit not given))	reduction in urinary albumin to creatinine ratio (in words) ([1]; s.c. 20 mg/kg on days 2, 3, 4, 8)	reduction of collagen 1A1 expression (in words, FIG. 2A) [2]	reduction of collagen 3A1 expression (in words, FIG. 2B) [2]	in vivo (kidney) N-1(%) [3]	in vivo (kidney) N(%) [3]	ex vivo (liver) N %↓ [4]	ex vivo (liver) % N-1 [4]	ex vivo (liver) % Endo [4]
AEASATCSTGTCSTCAUSAATASAAE [Compound 25109, reference compound]	140 μgAlb/mgCr															
AECSATCSAGTCSTGAUSAAGCSTAS (ACATCAGTCTGATAAGCTA; modified nucleosides coded in name, code key not given here) [Compound 25923, 25070 variant: 3'-terminal nucleoside is a cEt nucleoside rather than 2'-MOE nucleoside]	31 μgAlb/mgCr	demonstrated inhibition of miR-21 in a dose-dependent manner	1.06	1.01	1.10	5.18	11.34	10.81	statistically significant reductions	reduced collagen 1A1 and collagen 3A1 expression by a statistically significant amount	reduced collagen 1A1 and collagen 3A1 expression by a statistically significant amount					
AECSATCSAGTCSTGAUSAAGCSUSAS (ACATCAGTCTGATAAGCTA; modified nucleosides coded in name, code key not given here) [Compound 25221]										reduced collagen 1A1 and collagen 3A1 expression by a statistically significant amount	reduced collagen 1A1 and collagen 3A1 expression by a statistically significant amount	4 ± 1%	76 ± 4%	3%	0%	3%
AECSATCSASGTCSUSGAUSASAGCSUSAE (ACATCAGTCTGATAAGCTA; modified nucleosides coded in name, code key not given here) [Compound 25220]										reduced collagen 1A1 and collagen 3A1 expression by a statistically significant amount	reduced collagen 1A1 and collagen 3A1 expression by a statistically significant amount	16 ± 6%	67 ± 16%	3%	0%	3%
